Consider four molecules from PMC2743263 (Nature chemical biology, 2009).

In general, IC50 refers to the concentration at which inhibition is half-maximal. A word on the Km: it is the substrate concentration at which the rate is half of its maximum. By kcat is commonly meant the number of substrate molecules converted per active site and unit of time at saturation.

Assay [1] deals with T1, cellular MTAN activity in V. cholerae N16961 (Vibrio cholerae serotype O1, UniProt Q9KPI8).
T1 sequence (Q9KPI8 1-231): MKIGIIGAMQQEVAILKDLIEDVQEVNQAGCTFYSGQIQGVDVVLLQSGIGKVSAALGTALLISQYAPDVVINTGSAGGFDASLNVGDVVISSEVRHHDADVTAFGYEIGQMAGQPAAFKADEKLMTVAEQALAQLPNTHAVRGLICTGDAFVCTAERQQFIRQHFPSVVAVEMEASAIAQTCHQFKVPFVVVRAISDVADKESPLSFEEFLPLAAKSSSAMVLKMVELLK
The assay is classed as cell-based. To be noted: cellular IC50 versus Ki*.

The next assay deals with V. cholerae N16961. In words: Growth of V. cholerae. Type of assay: cell-based, Vibrio cholerae.
For a further assay, the system named is E. coli O157:H7. In words: Growth of E. coli. The assay is classed as cell-based, Escherichia coli.
Assay [2] has as its system autoinducer-2 production in E. coli O157:H7. In words: Autoinducer-2 production after prolonged incubation. The conditions noted are these: E. coli O157:H7, LB, 26 generations, 1 μM; untreated 195-fold. The assay is classed as cell-based, Escherichia coli.
Assay [3] relates to autoinducer-2 production in V. cholerae N16961. The description is as above. Type of assay: cell-based, Vibrio cholerae. To be noted: V. cholerae N16961, LB, 26 generations, untreated 540-fold.
Assay [4] has as its system autoinducer production by V. cholerae N16961. The assay can be described thus: microbe, parasite or virus in culture. To be noted: Vibrio cholerae, read-out: AI Inhibition IC50, BB170.
For another assay, the system named is E. coli MTAN (EcMTAN). The conditions noted are these: read-out: dissociation constant; cited from earlier work.
The target in the next assay is T2, VcMTAN (Vibrio cholerae serotype O1, UniProt Q9KPI8).
T2 sequence (Q9KPI8 1-231): T1 sequence (Q9KPI8 1-231)
In words: VcMTAN substrate kinetics, loss of MTA at 274 nm. Type of assay: biochemical.

Consider `CCCCSC[C@H]1CN(Cc2c[nH]c3c(N)ncnc23)C[C@@H]1O` [BuT-DADMe-ImmA, 5′-butylthio-DADMe-ImmucillinA], for which the “increase above Ki* required to inhibit VcMTAN activity in the cell” value in assay [1] worked out at 30 fold. Besides, the “growth of cells in the biofilm assay” value is on record as “did not inhibit growth” in the assay with V. cholerae N16961 (V. cholerae N16961, 1 μM, static, 25 °C) and “did not inhibit growth” with E. coli O157:H7 (E. coli O157:H7, 1 μM, static, 25 °C). The growth result with V. cholerae N16961 (V. cholerae N16961, 26 generations, 1 or 2.5 μM) was “remained uninhibited”; in the assay with E. coli O157:H7 (E. coli O157:H7, 26 generations, 1 or 2.5 μM), “remained uninhibited”; in the assay with E. coli O157:H7 (E. coli O157:H7 and MTAN knockout strain, AB medium, up to 0.5 μM), “no growth defects”. In addition, the “effect on cell growth (OD600)” value with V. cholerae N16961 (overnight culture, concentrations up to 1 μM) was “without affecting growth”. In addition, the “light induction in BB170” value in assay [2] was 1.4 fold. For the same molecule, the “quorum sensing signal (light induction in BB170)” value in assay [3] (1 μM) turned out to be 4.2 fold; in assay [3] (2.5 μM), 1.3 fold. In assay [4], the IC50 turned out to be 1.4 ± 0.3 nM.

As to `CCSC[C@H]1CN(Cc2c[nH]c3c(N)ncnc23)C[C@@H]1O` [EtT-DADMe-ImmA, 5′-ethylthio-DADMe-ImmucillinA], the IC50 in assay [4] was determined as 11 ± 2 nM.

With `CSC[C@H]1CN(Cc2c[nH]c3c(N)ncnc23)C[C@@H]1O` [MT-DADMe-ImmA, 5′-methylthio-DADMe-ImmucillinA], the Ki in the assay with E. coli MTAN (EcMTAN) is 0.002 nM. Moreover, the IC50 in assay [4] came to 0.94 ± 0.13 nM.

For `CSC[C@H]1O[C@@H](n2cnc3c(N)ncnc32)[C@H](O)[C@@H]1O` [MTA, methylthioadenosine], on VcMTAN, the Km is 3 µM and the kcat amounted to 2 s⁻¹.
